Patent US10265321B2, “Uses of salt-inducible kinase (SIK) inhibitors” (Dana-Farber Cancer Institute, Inc., priority 2014, dated 2019)

Legend:
[1] = target: T1, SIK2 (Homo sapiens, UniProt Q9H0K1); test: Protein kinase assay ([γ-32P] ATP, phosphocellulose paper) against SIK2; format: biochemical; details: for IC50: read-out: Enzyme Inhibition IC50 SIK2
T1 construct: made in house
Procedure: (§1) Bone marrow-derived DCs were differentiated from C57BL/6 bone marrow in the presence of GM-CSF-conditioned media. CD11c^+ CX3CR1^hi myeloid cells and CD11c^+ CX3CR1^− DCs were isolated from the small intestine lamina propria of Cx3cr1^eGFP/+ mice (12). Detection of cell-surface Thy1.1 expression on BMDCs from 10BiT reporter mice was conducted as described previously (24). Cell viability was estimated by change in total cellular ATP levels using CellTiterGlo assays (Promega). Preparation of recombinant SIK proteins and IC50 measurements were conducted as described previously (21). Total RNA was extracted using a NucleoSpin 96 RNA isolation kit (Macherey-Nagel) followed by cDNA synthesis and multiplex RT-PCR using a microfluidic dynamic array (Fluidigm). The concentrations of TNF-α, IL-6, IL-10, IL-12p40, IL-1β and RANTES in culture supernatants were detected using a FlexSet Cytometric bead array (BD Biosciences). Alternatively, IL-10 secretion was quantified using ELISA (BD Biosciences) or AlphaLISA (PerkinElmer) assays. NO production was estimated based on nitrate content in culture medium using the Greiss reagent.
(§2) In another set of experiments, the activities of the SIK inhibitors described herein against SIK were determined according to the methods reported in Hastie et al., Nature Protocols, 2006, 1, 968-971.
(§3) This buffer consisted of 50 mM Tris-HCl, pH 7.5, 0.1 mM EGTA, 1 mg ml^−1 bovine serum albumin and 0.1% (vol/vol) 2-mercaptoethanol.
(§4) An assay buffer of 500 mM Tris-HCl, pH 7.5, 1 mM EGTA, and 100 mM magnesium acetate was used for the protein kinase assay.
(§5) The specific activity of the [γ-^32P] ATP solution was 1×10^5 to 1×10^6 c.p.m. per nmol depending on what was needed to produce an optimal signal/noise ratio. Stocks of nonradioactive (“cold”) ATP were dissolved in 10 mM HEPES, and the pH of the resulting stock solutions was adjusted to 7.4. To measure the concentration of ATP, a sample of such a stock solution was diluted to 20 μM, and the absorbance of the diluted sample was measured at 259 nm. The absorbance of a 20-μM stock solution of ATP at 259 nm was about 0.31. The 1-mM solution of cold ATP was “spiked” with [γ-^32P] ATP to produce a radioactivity of 1×10^5 to 1×10^6 c.p.m. per nmol.
(§6) 1) The number of assay samples needed was determined based on, e.g., the following considerations: (i) each condition was assayed in duplicate; (ii) two controls containing peptide or protein substrate and ATP but no SIK were included to assess contamination by any free ATP not incorporated into substrate, alongside two controls lacking a peptide or protein substrate but containing ATP and SIK to correct for any incorporation of phosphate into the kinase itself (e.g., autophosphorylation); and (iii) a maximum of 40 samples were assayed manually at one time by a single person. Microcentrifuge tubes were label distinctly and were placed on ice.
(§7) 4) Dilute the SIK in enzyme dilution buffer and place on ice.
(§8) 5) Pipette 5 j±l of 10× concentrated assay buffer, 5 j±l peptide or protein substrate (the two “no-substrate” control tubes had 5 j±l water added instead of peptide or protein substrate), and 30 μl distilled water into each tube. Keep the tubes on ice.
(§9) 6) Add 5 μl diluted SIK to each tube, except for the two “no-enzyme” control tubes, which had 5 μl enzyme dilution buffer added, and still keeping the tubes on ice. In some cases, premixed “cocktails” of assay components were prepared containing peptide or protein substrate, assay buffer, and distilled water to limit the number of additions to each assay tube. Each of steps 7 to 14 was done behind a plexiglass shield.
(§10) 7) Insert each tube into the water bath at intervals of 15 s to allow the assay mixture to reach 30° C. Begin the SIK reactions by adding 5 μl of 1 mM [γ-^32P] ATP to each tube at intervals of 15 s. Close each tube, vortex for 1 s to mix the contents and immediately replace in a rack in the water bath. Incubate for 10 min at 30° C. […]

[2] = target: T2, SIK3 (Homo sapiens, UniProt Q9Y2K2); test: Protein kinase assay ([γ-32P] ATP, phosphocellulose paper) against SIK3; format: biochemical; details: read-out: Enzyme Inhibition IC50 SIK3
T2 construct: made in house
T2 sequence (Q9Y2K2 whole entry): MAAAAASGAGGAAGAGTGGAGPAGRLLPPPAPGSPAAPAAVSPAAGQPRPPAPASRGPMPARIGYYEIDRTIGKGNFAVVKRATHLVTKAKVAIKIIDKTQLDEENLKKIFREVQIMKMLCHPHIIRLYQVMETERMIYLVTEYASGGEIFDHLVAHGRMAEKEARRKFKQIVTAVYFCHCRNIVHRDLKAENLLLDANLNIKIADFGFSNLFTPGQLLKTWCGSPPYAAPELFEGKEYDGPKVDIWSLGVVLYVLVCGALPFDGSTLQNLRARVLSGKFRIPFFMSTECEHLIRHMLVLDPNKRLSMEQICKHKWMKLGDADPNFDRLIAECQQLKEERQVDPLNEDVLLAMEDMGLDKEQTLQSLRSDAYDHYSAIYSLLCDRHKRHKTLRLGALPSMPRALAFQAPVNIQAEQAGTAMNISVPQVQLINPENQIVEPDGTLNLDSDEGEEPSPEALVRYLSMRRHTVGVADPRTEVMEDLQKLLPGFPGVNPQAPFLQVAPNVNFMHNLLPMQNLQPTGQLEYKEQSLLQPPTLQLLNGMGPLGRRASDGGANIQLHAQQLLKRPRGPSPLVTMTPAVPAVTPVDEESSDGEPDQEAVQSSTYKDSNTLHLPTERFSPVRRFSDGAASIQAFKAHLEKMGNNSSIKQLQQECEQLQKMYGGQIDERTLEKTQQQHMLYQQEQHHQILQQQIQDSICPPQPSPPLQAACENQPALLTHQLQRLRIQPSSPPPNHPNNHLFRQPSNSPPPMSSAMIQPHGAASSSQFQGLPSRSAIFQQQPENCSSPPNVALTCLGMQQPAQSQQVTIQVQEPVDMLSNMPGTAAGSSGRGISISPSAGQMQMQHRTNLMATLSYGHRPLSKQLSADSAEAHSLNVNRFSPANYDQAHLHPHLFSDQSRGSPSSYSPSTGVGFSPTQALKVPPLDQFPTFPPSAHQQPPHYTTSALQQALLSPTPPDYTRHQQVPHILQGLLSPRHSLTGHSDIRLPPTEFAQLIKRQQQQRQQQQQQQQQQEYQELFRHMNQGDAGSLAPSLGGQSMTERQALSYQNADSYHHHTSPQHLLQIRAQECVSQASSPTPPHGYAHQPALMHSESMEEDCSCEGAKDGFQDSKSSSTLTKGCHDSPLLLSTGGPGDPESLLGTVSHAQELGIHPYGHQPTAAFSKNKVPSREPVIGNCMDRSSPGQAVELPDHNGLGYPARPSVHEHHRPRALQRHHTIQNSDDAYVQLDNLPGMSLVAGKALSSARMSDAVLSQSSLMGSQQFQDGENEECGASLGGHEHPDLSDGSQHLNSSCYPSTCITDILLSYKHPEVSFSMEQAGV
Procedure: as §1, §2, §3, §4, §5, §6, §7, §8, §9, §10

[3] = system: IL-10 production by zymosan-stimulated BMDCs; test: IL-10 up-regulation in zymosan-stimulated BMDCs (AlphaLISA/ELISA); format: cell-based, mouse; details: for EC50: Mus musculus, BMDC, read-out: IL-10 induction EC50; for effect on IL-10 production by BMDCs (in words): kinase inhibitor screen / PGE2 control
Procedure: as §1
(§11) C57BL/6 mice were euthanized and bone marrow harvested from femurs and tibias as described previously (Graham D B, et al. (2007) An ITAM-signaling pathway controls cross-presentation of particulate but not soluble antigens in dendritic cells. The Journal of experimental medicine 204(12):2889-2897). BMDCs were differentiated DMEM supplemented with 2 mM GlutaMAX, 10% (vol/vol) FBS, penicillin, streptomycin and 2% mouse GM-CSF conditioned media derived from TOPO cells. Cultures were differentiated for 7 days and routinely analyzed for >90% CD11c (APC anti-CD11c clone HL3; BD Biosciences) positivity by flow cytometry before use in experiments. Lentiviral transduction of bone marrow cultures was conducted by addition of 293T culture supernatants containing lentiviral particles encoding the CREB dependent luciferase reporter construct or CRTC3 targeting or control shRNAs one day post-isolation. Stable integration of lentiviral shRNA constructs was selected by addition of puromycin (3 μg/mL) on day 4 post-transduction. After 2 days, stably transduced BMDCs were released from selection and used in subsequent assays. Unless otherwise indicated, cells were treated for 2 days with PGE2 (5 μM) or HG-9-91-01 (0.5 μM) or an equivalent concentration of DMSO (≤0.5%) and then stimulated for 18 hr with LPS (100 ng/mL), R848 (10 μg/mL) or zymosan (4 μg/mL).
BMDCs were seeded into black 384-well plates (Corning) at 20,000 cells/well in 40 μL complete DMEM using a Multidrop COMBI (Thermal Scientific) followed by incubation at 37° C. for 2 hr to allow for plate adherence. SIK inhibitors (100 nL/well) were pin-transferred from concentrated DMSO stocks using CyBi-Well Vario (CyBio) into duplicate plates. For each treatment plate, 32 out of 384 wells were pinned with DMSO as negative control and 32 out of 384 wells were pinned with PGE2 (5 μM final concentration). Two days after SIK inhibitor treatment, BMDCs were stimulated with zymosan (4 μg/mL final concentration) dispersed in culture medium (20 μL/well) using a Multidrop COMBI. After 18 hr, 5 μL of resulting supernatant was transferred from the culture plate to white 384-well AlphaLISA plates (Perkin Elmer) using a CyBi-Well Vario. IL-10 abundance in the supernatants was determined using an AlphaLISA assay (PerkinElmer) according to the manufacture's protocol and signal intensity measured using an EnVision multimode plate reader. SIK inhibitor activity was expressed as a % of the differences between the mean abundance of IL-10 in PGE2 versus DMSO wells on a per plate basis. Cell viability assays were conducted on the same tissue culture plates as the IL-10 assay. First media was removed and replaced by solution of 50% (vol/vol) CellTiter-Glo (Promega) in PBS. […]

[4] = system: BMDCs; test: Cell viability of BMDCs (CellTiter-Glo, cellular ATP); format: cell-based, mouse; details: for EC50: Mus musculus, BMDC, zymosan-stimulated BMDCs, read-out: Viability loss EC50
Procedure: as §1
BMDCs were seeded into black 384-well plates (Corning) at 20,000 cells/well in 40 μL complete DMEM using a Multidrop COMBI (Thermal Scientific) followed by incubation at 37° C. for 2 hr to allow for plate adherence. SIK inhibitors (100 nL/well) were pin-transferred from concentrated DMSO stocks using CyBi-Well Vario (CyBio) into duplicate plates. For each treatment plate, 32 out of 384 wells were pinned with DMSO as negative control and 32 out of 384 wells were pinned with PGE2 (5 μM final concentration). Two days after SIK inhibitor treatment, BMDCs were stimulated with zymosan (4 μg/mL final concentration) dispersed in culture medium (20 μL/well) using a Multidrop COMBI. After 18 hr, 5 μL of resulting supernatant was transferred from the culture plate to white 384-well AlphaLISA plates (Perkin Elmer) using a CyBi-Well Vario. IL-10 abundance in the supernatants was determined using an AlphaLISA assay (PerkinElmer) according to the manufacture's protocol and signal intensity measured using an EnVision multimode plate reader. SIK inhibitor activity was expressed as a % of the differences between the mean abundance of IL-10 in PGE2 versus DMSO wells on a per plate basis. Cell viability assays were conducted on the same tissue culture plates as the IL-10 assay. First media was removed and replaced by solution of 50% (vol/vol) CellTiter-Glo (Promega) in PBS. Luminescence was read using an Envision multimode plate reader, and signal intensity calculated relative to DMSO control wells on a per plate basis.

[5] = target: T3, SIK1 (Homo sapiens, UniProt P57059); test: Protein kinase assay ([γ-32P] ATP, phosphocellulose paper) against SIK1; format: biochemical; details: 1 μM; DMSO set to 100%; read-out: Activity of protein kinase treated with 1 μM of I-1 (% control (DMSO)) SIK1
T3 construct: made in house
T3 sequence (P57059 whole entry): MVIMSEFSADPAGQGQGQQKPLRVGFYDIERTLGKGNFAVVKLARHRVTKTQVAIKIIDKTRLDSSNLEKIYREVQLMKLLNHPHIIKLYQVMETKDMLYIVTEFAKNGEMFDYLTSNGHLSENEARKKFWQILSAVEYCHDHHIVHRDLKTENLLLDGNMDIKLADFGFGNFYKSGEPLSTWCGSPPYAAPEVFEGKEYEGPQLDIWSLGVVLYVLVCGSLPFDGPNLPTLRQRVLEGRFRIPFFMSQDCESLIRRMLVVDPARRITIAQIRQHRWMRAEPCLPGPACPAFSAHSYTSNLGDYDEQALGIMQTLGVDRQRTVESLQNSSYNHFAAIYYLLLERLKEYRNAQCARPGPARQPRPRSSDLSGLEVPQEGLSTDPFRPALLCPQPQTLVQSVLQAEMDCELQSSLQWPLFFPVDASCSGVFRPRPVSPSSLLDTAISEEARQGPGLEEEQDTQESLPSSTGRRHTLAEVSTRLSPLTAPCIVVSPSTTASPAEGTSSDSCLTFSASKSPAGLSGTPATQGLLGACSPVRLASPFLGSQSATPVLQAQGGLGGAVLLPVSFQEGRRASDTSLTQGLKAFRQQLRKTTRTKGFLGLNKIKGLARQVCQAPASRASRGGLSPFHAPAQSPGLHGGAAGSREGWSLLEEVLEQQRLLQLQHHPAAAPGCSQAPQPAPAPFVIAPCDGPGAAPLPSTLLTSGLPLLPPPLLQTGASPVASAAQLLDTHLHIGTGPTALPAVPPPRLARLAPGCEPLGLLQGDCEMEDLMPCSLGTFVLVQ
Procedure: as §1, with “Total RNA was extracted using a NucleoSpin 96 RNA isolation kit (Macherey-Nagel) followed by cDNA synthesis and multiplex RT-PCR using a microfluidic dynamic array (Fluidigm).” left out, “NO production was estimated based on nitrate content in culture medium using the Greiss reagent.” left out
In another set of experiments, the activities of the SIK inhibitors described herein against SIK were determined according to the methods reported in Hastie et al., Nature Protocols, 2006, 1, 968-971. […]
The specific activity of the [γ-^32P] […] To measure the concentration of ATP, a sample of such a stock solution was diluted to 20 μM, and the absorbance of the diluted sample was measured at 259 nm. The absorbance of a 20-μM stock solution of ATP at 259 nm was about 0.31. […] ATP to produce a radioactivity of 1×10^5 to 1×10^6 c.p.m. per nmol. […]

[6] = system: BMDCs; test: Multiplex qPCR of transcripts in stimulated BMDCs; format: cell-based, mouse; details: 2 days pre-treatment, 4 hr LPS, R848 or zymosan
Procedure: as §1
as §11, with “Unless otherwise indicated, cells were treated for 2 days with PGE2 (5 μM) or HG-9-91-01 (0.5 μM) or an equivalent concentration of DMSO (≤0.5%) and then stimulated for 18 hr with LPS (100 ng/mL), R848 (10 μg/mL) or zymosan (4 μg/mL).” left out
Total RNA was extracted using a NucleoSpin 96 RNA isolation kit (Macherey-Nagel). […] Relative gene expression was calculated from Ct values and normalized against ACTB mRNA levels as described previously (Pfaffl MW (2001) A new mathematical model for relative quantification in real-time RT-PCR. Nucleic acids research 29(9):e45). […]

[7] = system: BMDCs; test: Cytokine (cytometric bead array) and NO (Greiss) production by stimulated BMDCs; format: cell-based, mouse
Procedure: as §1, §11
After stimulation of cells with microbial ligands, the culture medium was removed, clarified by centrifugation for 10 min at 14,000×g, and the concentration of TNF-α, IL-6, IL-10, IL-12p40, IL-1β and RANTES were measured using FlexSet Cytokine Bead Array (BD Biosciences) according to the manufacturer's instructions. Where indicated, ELISAs were used to detect IL-10 and IL-12p70 (BD Biosciences) according to the manufacturer's instructions. NO production was estimated based on nitrate content in culture medium using the Greiss reagent as described previously (Miletic A V, et al. (2007) Vav proteins control MyD88-dependent oxidative burst. Blood 109(8):3360-3368).

T1 sequence (Q9H0K1 whole entry): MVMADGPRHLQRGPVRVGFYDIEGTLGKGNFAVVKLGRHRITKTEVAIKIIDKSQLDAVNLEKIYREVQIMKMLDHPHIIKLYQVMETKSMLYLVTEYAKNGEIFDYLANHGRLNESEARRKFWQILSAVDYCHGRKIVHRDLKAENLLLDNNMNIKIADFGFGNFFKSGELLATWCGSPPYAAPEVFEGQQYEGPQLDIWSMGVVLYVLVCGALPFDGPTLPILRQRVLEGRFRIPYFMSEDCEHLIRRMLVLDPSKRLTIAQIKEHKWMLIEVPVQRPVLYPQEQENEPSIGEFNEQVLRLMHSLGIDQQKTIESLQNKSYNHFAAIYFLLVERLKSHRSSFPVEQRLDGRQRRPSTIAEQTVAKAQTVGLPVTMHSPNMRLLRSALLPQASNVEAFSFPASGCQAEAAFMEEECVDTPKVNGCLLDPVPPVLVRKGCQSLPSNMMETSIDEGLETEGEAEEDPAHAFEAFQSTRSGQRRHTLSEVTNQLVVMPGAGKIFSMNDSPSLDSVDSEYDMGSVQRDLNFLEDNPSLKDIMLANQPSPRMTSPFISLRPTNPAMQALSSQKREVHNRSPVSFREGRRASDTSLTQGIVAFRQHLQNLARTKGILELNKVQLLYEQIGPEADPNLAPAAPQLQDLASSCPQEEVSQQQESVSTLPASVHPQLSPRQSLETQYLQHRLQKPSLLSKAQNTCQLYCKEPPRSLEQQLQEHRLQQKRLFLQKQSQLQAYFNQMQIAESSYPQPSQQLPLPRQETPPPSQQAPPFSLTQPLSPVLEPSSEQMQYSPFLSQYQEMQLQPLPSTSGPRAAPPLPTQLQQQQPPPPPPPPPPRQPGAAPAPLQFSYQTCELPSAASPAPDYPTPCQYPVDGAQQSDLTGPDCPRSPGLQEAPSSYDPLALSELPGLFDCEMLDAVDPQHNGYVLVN

| SMILES | IC50 [1] [nM] | IC50 [2] [nM] | EC50 [4] [nM] | viability of BMDCs (in words) [4] | also measured |
| --- | --- | --- | --- | --- | --- |
| Cc1cccc(C)c1OC(=O)N1C/C=C\COCc2cc(ccc2OCCN2CCC(O)CC2)Nc2nccc1n2 [I-5] | 12 | 73.7 | 6120 | – | EC50 ([3]; zymosan-stimulated BMDCs): 23800 nM |
| COc1cc(N2CCC(N3CCN(C)CC3)CC2)ccc1Nc1ncc(Cl)c(Nc2ccccc2S(=O)(=O)C(C)C)n1 [TAE-684, reference compound] | – | – | – | reduced viability | – |
| Cc1ccc(NC(=O)c2ccc(CN3CCN(C)CC3)cc2)cc1Nc1nccc(-c2cccnc2)n1 [imatinib, reference compound] | – | – | – | non-toxic | effect on IL-10 production by BMDCs (in words) [3]: did not up-regulate IL-10 production |
| CCN1CCN(CCOc2ccc3cc2COC/C=C/CN(C(=O)Oc2c(C)cccc2C)c2ccnc(n2)N3)CC1 [I-2] | 87.8 | 445 | 6580 | – | remaining activity at 1 µM [5]: 15.9%; remaining activity at 1 µM ([1]; 1 μM, DMSO set to 100%, read-out: Activity of protein kinase treated with 1 μM of I-1 (% control (DMSO)) SIK2): 15% |
| Cc1c[nH]c(-c2cnc(NCCNc3ccc(C#N)cn3)nc2-c2ccc(Cl)cc2Cl)n1 [CHIR-99021, reference compound] | – | – | – | reduced viability | maximum effect on IL-10 production ([3]; zymosan-stimulated BMDCs, hit criterion): > 30 % of the PGE2 response |
| COc1cc(Nc2c(C#N)cnc3cc(OCCCN4CCN(C)CC4)c(OC)cc23)c(Cl)cc1Cl [bosutinib, reference compound] | – | – | – | reduced viability | – |
| CN1CCN(CCOc2cc(OC3CCOCC3)c3c(Nc4c(Cl)ccc5c4OCO5)ncnc3c2)CC1 [saracatinib, reference compound] | – | – | – | reduced viability | – |
| CCCCC[C@H](O)/C=C/[C@H]1[C@H](O)CC(=O)[C@@H]1C/C=C\CCCC(=O)O [PGE2, prostaglandin E2, reference compound] | – | – | – | – | effect on IL-10 production by BMDCs (in words) [3]: increased levels of IL-10; IL-10 mRNA levels [6]: robustly enhanced; abundance of Arg1 and Nos2 transcripts [6]: highly induced; IL-10 secretion ([7]; BMDCs pre-treated, LPS, R848 or zymosan 18 hr): similarly induced; IL-1β production ([7]; BMDCs, stimulation with R848 or zymosan): enhanced; NO production ([7]; BMDCs, zymosan stimulation, relative to HG-9-91-01-treated): increased NO production |
| Cc1cccc(C)c1OC(=O)N1C/C=C/COCc2cc(ccc2OCCN2CCC(O)CC2)Nc2nccc1n2 [I-4] | 93.8 | 409 | 5000 | – | EC50 ([3]; zymosan-stimulated BMDCs): 10500 nM |
